Test [1] has as its target T1, NANOLUC-HDAC6 fusion protein (Homo sapiens, UniProt Q9UBN7).
T1 construct: expressed in transfected cells; host or cells: HEK293
Briefly: Intracellular BRET tracer binding, NANOLUC-HDAC6 in HEK293 cells (Example 1). As to conditions: live HEK293 cells, compared to SAHA-TMR (PBI-4967). As to the method:
In this example, conjugates of suberoylanilide hydroxamic acid (SAHA), an inhibitor of histone deacetylase 6 (HDAC6), and a PBI dye (SAHA-TOM (PBI-4968); See FIGS. 8A-B) or standard dye (SAHA-TAMRA (PBI-4967); See FIGS. 8A-B) were utilized in an intracellular BRET assay using a NANOLUC-HDAC fusion protein (SEQ ID NO: 3).
HEK293 cells were transfected using FuGene HD (Promega Corp.) with plasmid DNA encoding a NANOLUC-HDAC6 fusion protein. NANOLUC-HDAC6 DNA was diluted 1:1000 with a promoterless carrier DNA (pGEM3Z) to yield a final concentration of 50 ng/well total DNA in 96-well plate format (at a seeding density of 20,000 cells/well). Twenty-four hours post-transfection, cells were then incubated with serially-diluted tracer in the presence or absence of a molar excess of unlabeled SAHA (as a specificity control). Following equilibration with the drug tracers, furimazine (a coelenterazine derivative substrate for NANOLUC; Promega Corp.) was added at a concentration of 20 uM, and BRET was quantified on a Varioskan luminometer. The specific BRET signal was calculated by subtracting the non-specific signal (in the presence of unlabeled SAHA) from the signal generated from the SAHA tracer alone.
(In general: In BRET a luciferase serves as donor, and the signal depends on an acceptor being close.)

The target of test [2] is T2, NANOLUC-HDAC6 (Homo sapiens, UniProt Q9UBN7).
T2 construct: expressed in transfected cells; host or cells: HEK293
As to the kind of experiment: BRET compound panel screen by competitive displacement of SAHA-TOM, NANOLUC-HDAC6 in HEK293 cells (Example 15). The test is classed as binding. To be noted: 1 uM SAHA-TOM (PBI-4968), 2 h.

T1 sequence (Q9UBN7 with tags, fused parts or gaps): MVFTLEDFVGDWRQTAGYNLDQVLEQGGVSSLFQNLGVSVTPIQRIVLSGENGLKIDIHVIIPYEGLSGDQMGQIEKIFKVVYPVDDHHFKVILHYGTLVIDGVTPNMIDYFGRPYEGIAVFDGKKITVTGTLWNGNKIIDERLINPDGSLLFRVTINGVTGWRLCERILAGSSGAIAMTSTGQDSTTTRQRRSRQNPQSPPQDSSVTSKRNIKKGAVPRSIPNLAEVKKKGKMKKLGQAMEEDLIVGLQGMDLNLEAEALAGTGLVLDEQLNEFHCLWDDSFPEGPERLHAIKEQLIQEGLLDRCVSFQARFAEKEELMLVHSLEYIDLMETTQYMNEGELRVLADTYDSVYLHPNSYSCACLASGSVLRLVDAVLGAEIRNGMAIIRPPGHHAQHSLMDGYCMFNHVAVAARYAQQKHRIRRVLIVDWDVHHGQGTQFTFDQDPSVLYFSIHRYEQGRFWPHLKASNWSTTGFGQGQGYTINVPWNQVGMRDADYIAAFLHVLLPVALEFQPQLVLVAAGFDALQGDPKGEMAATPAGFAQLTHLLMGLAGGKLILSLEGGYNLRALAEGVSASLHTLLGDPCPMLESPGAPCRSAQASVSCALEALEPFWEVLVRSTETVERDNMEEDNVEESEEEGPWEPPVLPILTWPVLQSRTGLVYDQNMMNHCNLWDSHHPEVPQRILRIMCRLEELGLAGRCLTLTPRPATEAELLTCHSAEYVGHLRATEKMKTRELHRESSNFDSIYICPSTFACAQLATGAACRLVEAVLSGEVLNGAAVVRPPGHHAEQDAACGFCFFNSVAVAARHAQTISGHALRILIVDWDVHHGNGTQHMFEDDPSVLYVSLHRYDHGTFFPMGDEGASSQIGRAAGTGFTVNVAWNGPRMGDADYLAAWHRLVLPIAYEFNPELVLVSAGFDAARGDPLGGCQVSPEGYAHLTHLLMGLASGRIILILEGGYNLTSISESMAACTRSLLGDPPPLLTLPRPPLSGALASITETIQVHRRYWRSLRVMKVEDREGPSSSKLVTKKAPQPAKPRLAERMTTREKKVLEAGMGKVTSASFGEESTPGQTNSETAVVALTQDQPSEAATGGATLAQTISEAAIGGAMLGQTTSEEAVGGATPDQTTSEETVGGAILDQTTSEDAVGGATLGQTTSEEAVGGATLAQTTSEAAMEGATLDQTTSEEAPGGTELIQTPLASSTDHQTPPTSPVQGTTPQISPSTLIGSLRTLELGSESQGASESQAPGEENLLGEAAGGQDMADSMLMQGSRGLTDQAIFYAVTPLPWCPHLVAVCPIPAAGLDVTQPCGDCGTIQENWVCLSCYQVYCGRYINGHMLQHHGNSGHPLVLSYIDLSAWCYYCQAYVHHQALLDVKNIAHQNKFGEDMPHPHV
T2 sequence (Q9UBN7 with tags, fused parts or gaps): as above

With `O=C(CCCCCCC(=O)Nc1ccc(CNC(=O)c2ccc(C(=O)O)c(C3=c4cc5c6c(c4Oc4c3cc3c7c4CCCN7CCCC3)CCC[N+]=6CCCC5)c2)cc1)NO` [PBI-4968], the “specific BRET signal” value in test [1] (NANOLUC-HDAC6 DNA diluted 1:1000) is recorded as “superior, specific BRET signal”. In addition, the “EC50 value for binding within living cells” value in test [1] is on record as “left-shifted”.
As to `O=C(CCCCCCC(=O)Nc1ccccc1)NO` [SAHA, suberoylanilide hydroxamic acid], the “binding efficiency to HDAC6 (competitive displacement of tracer)” value in test [2] is given as “high binding efficiency”.

The values are drawn from patent US11740249B2, “Recognition of cellular target binding by a bioactive agent using intracellular bioluminescence resonance energy transfer” (Promega Corporation, priority 2012, dated 2023).
